Test results published in BindingDB's records for doi:10.1016/j.bmcl.2005.08.100 (the State University of New Jersey, 2022).

How the values were obtained:
[1] = target: T1, Replicase polyprotein 1ab (Severe acute respiratory syndrome coronavirus 2, UniProt P0DTD1); experiment: Inhibition of SARS-CoV-2 papain-like protease
[2] = target: T1, Replicase polyprotein 1ab; experiment: Inhibition of SARS-CoV-2 papain-like protease using fluorescent substrate preincubated for 1 hr by fluorescence based assay
[3] = target: T1, Replicase polyprotein 1ab; experiment: Inhibition of SARS-CoV-2 papain-like protease assessed as viral protease-mediated deubiquitination using ubiquitinated substrate incubated for 16 to 18 hrs by fluorescence based assay
[4] = target: T1, Replicase polyprotein 1ab; experiment: Inhibition of TAP-tagged SARS-CoV-2 papain-like protease nsp123
[5] = target: T1, Replicase polyprotein 1ab; experiment: Inhibition of TAP-tagged SARS-CoV-2 papain-like protease nsp23
[6] = target: T1, Replicase polyprotein 1ab; experiment: Inhibition of SARS-CoV-2 papain-like protease-mediated de-ISGylation
[7] = target: T1, Replicase polyprotein 1ab; experiment: Binding affinity to CM5 chip immobilized full-length wild-type SARS-CoV-2 papain-like protease (1564 to 1878 residues) expressed in Escherichia coli BL21 (DE3) assessed as dissociation constant incubated for 90 secs by SPR analysis
[8] = target: T1, Replicase polyprotein 1ab; experiment: Inhibition of N-terminal 3xFlag-His6-tagged SARS-CoV-2 papain-like protease nsp3 (1564 to 1878 residues) expressed in baculovirus infected Sf9 insect cells using Pro3 as substrate by fluorescence based assay
[9] = target: T1, Replicase polyprotein 1ab; experiment: Inhibition of C-terminal His-tagged SARS-CoV-2 BetaCoV/Wuhan/WIV04/2019 papain-like protease (1564 to 1876 residues) expressed in Escherichia coli BL21 (DE3) using Dabcyl-FTLRGG/APTKV as substrate preincubated for 1 hr followed by substrate addition measured after 3 hrs by FRET assay
[10] = target: T1, Replicase polyprotein 1ab; experiment: Inhibition of recombinant SARS-CoV-2 papain-like protease using Z-Arg-Leu-Arg-Gly-Gly-AMC as substrate by enzymatic assay
[11] = target: T1, Replicase polyprotein 1ab; experiment: Inhibition of recombinant SARS-CoV-2 main protease using ATLQAIAS as substrate preincubated for 15 mins by enzymatic assay
[12] = target: T1, Replicase polyprotein 1ab; experiment: Inhibition of SARS-CoV-2 papain-like protease expressed in Escherichia coli BL21 (DE3) using Z-LRGG-AMC/Z-RLRGG-AMC as substrate preincubated for 30 mins by enzymatic assay
[13] = target: T1, Replicase polyprotein 1ab; experiment: Inhibition of SARS-CoV-2 papain-like protease using ISG15-Rh as substrate
[14] = target: T1, Replicase polyprotein 1ab; experiment: Binding affinity to biotin-tagged SARS-CoV-2 papain-like protease expressed in Escherichia coli BL21 (DE3) assessed as dissociation constant incubated for 3 mins by BLI assay
[15] = target: T1, Replicase polyprotein 1ab; experiment: Inhibition of 6xHis-tagged SARS-CoV-2 papain-like protease expressed in Escherichia coli BL21 (DE3) using ISG15-FITC as substrate incubated for 30 mins by fluorescence polarization assay
[16] = target: T1, Replicase polyprotein 1ab; experiment: Inhibition of SARS-CoV-2 papain-like protease using RLRGG-AMC as substrate

SMILES: O=C1c2ccccc2C(=O)c2oc(-c3ccccc3)nc21
- IC50 [1]: 0.56 µM

SMILES: O=C1c2c(O)cccc2[C@@H]([C@@H]2O[C@H](CO)[C@@H](O)[C@H](O)[C@H]2O)c2cc(CO)cc(O)c21
- IC50 [2]: 16.1 µM
- IC50 [3]: 17.5 µM

SMILES: Nc1nc2nc[nH]c2c(=S)[nH]1
- IC50 [4]: 0.5 µM
- IC50 [5]: 1 µM
- IC50 [6]: 0.1 µM

SMILES: C[C@H](c1cccc2ccccc12)N1CCC(C(=O)NCc2cc(F)cc(NC(=O)N3CCN(C)CC3)c2)CC1
- Kd [7]: 2.6 µM

SMILES: O=C1c2ccccc2-c2nc3nnnn3nc21
- IC50 [8]: 0.26 µM

SMILES: C[C@H](c1ccccc1Cl)N(C)Cc1cc(O)ccc1Cl
- IC50 [9]: 6.67 µM

SMILES: CN(Cc1cn(C2C3=C(OC2(C)C)c2ccccc2C(=O)C3=O)nn1)C1=CC(=O)c2ccccc2C1=O (stereo unspecified)
- IC50 [10]: 2.2 µM

SMILES: CN(Cc1cn(C2C3=C(OC2(C)C)c2ccccc2C(=O)C3=O)nn1)C1=C(Br)C(=O)c2ccccc2C1=O (stereo unspecified)
- IC50 [10]: 3.1 µM
- IC50 [11]: 66 µM

SMILES: C[C@@H](NC(=O)c1ccccc1CCC(=O)NNC(=O)/C(C#N)=C/C1CC1)c1cccc2ccccc12
- IC50 [12]: > 200 µM

SMILES: OCCc1ccc(O)cc1 [4-(2-Hydroxy-ethyl)-phenol]
- IC50 [13]: 6.68 µM

SMILES: O=Cc1ccc(O)cc1 [4-hydroxybenzaldehyde]
- IC50 [13]: 3.99 µM

SMILES: Cc1ccc(NC2=CC(=O)c3sc(C)nc3C2=O)cc1 [5-(N-(4-Methylphenyl)amino)-2-methyl-4,7-dioxobenzothiazole]
- IC50 [8]: 0.39 µM

SMILES: Oc1c(Cl)cc(Cl)c2cccnc12 [AS-229]
- Kd [14]: 4.6 µM
- IC50 [15]: 7.24 µM

SMILES: O=C1c2c(O)cccc2[C@H]([C@@H]2O[C@H](CO)[C@@H](O)[C@H](O)[C@H]2O)c2cc(CO)cc(O)c21 [CHEBI:2991]
- IC50 [2]: 13.2 µM
- IC50 [3]: 15.7 µM

SMILES: Nc1ccc2cc3ccc(N)cc3nc2c1 [acridine-3,6-diamine]
- IC50 [16]: 1.66 µM
